Patent US12152011B2, “Usnic acid derivative having TSLP secretion inhibitory ability and use thereof” (SEOUL NATIONAL UNIVERSITY HOSPITAL, priority 2018, dated 2024)

How the values were obtained:
IL-13 gene = test: qRT-PCR of IL-13 gene expression in TNF-a stimulated HaCaT cells; type: cell-based, human; conditions: TNF-a stimulation, UA-CA treatment, FIG. 4
IL-31 gene = test: qRT-PCR of IL-31 gene expression in TNF-a stimulated HaCaT cells; type: cell-based, human; conditions: TNF-a stimulation, UA-CA treatment, FIG. 6
hypertrophic scar = test: Scar alleviation in rabbit ear hypertrophic scar model (biopsy, H&E histology); type: in vivo
Description: In order to confirm the efficacy of Usnic acid derivatives in relieving hypertrophic scars, the degree of scar relief by UA-CA treatment in hypertrophic scar samples was confirmed through histological comparison and pathological examination of skin tissue after biopsy.
A total of 4 rabbits weighing 3.5 kg (N2W conventional, female, 30 weeks old) were reared for a week in an environment of 21±1° C. 12-hour light/dark cycle, and the experiment was carried out. After anesthesia by intravenous administration of ketamine (60 mg/kg)+xylazine (5 mg/kg), both ears of the rabbit were sufficiently sterilized with betadine, and 5 wounds each with a diameter of 6 mm were made with a biopsy punch and a neck collar was applied. Management and supervision were made to become a hypertrophic scar model for 2 weeks after wound surgery. After confirming the hypertrophic scar model, the test material was treated twice a week for 2 weeks (untreated hypertrophic scar sample (Control), hypertrophic scar sample treated with 1, 5, and 10 mM UA-CA, 100 Thickening scar samples treated with ug/ml tranilast). After 2 weeks, visual evaluation and biopsy of the wound area were performed, followed by H&E staining, and then the changes in epidermal thickness were compared at 200 times and 400 times under a microscope.

IL-1β gene = test: qRT-PCR of IL-1β gene expression in TNF-a stimulated HaCaT cells; type: cell-based, human; conditions: TNF-a stimulation, UA-CA treatment, FIG. 3
IL-25 gene = test: qRT-PCR of IL-25 gene expression in TNF-a stimulated HaCaT cells; type: cell-based, human; conditions: TNF-a stimulation, UA-CA treatment, FIG. 5
TSLP gene = test: qRT-PCR of TSLP gene expression in TNF-a stimulated HaCaT cells; type: cell-based, human; conditions: TNF-a stimulation, UA-CA treatment, FIG. 2

## C=C(OC(=O)/C=C/c1ccccc1)C1=C(OC(=O)/C=C/c2ccccc2)C=C2Oc3c(C(C)=O)c(O)c(C)c(O)c3[C@@]2(C)C1=O [UA-CA]
IL-13 gene
  expression level of the IL-13 gene (mRNA, relative to 36B4): dependently decreased
IL-31 gene
  expression level of the IL-31 gene (mRNA, relative to 36B4): dependently decreased
Hypertrophic scar; 10 mM UA-CA vs 100 ug/ml tranilast, twice a week for 2 weeks
  scar relief compared with positive control tranilast: better scar relief efficacy
Hypertrophic scar; UA-CA 1, 5, 10 mM, twice a week for 2 weeks, FIGS. 7A-7E
  scar relief compared to the untreated hypertrophic scar: scar relief was more advanced
Hypertrophic scar; UA-CA-treated sample, H&E staining, FIGS. 8A-8E
  thickness of the epidermis compared to the untreated thickening scar: became thinner
IL-1β gene
  expression level of the IL-1β gene (mRNA, relative to 36B4): dependently decreased
IL-25 gene
  expression level of the IL-25 gene (mRNA, relative to 36B4): dependently decreased
TSLP gene
  expression level of the TSLP gene (mRNA, relative to 36B4): dependently decreased
